Consider 20 compounds from US20250171437A1 (Agios Pharmaceuticals,Inc., priority 2022, published 2025).

SMILES strings stand for the structures. Bounds are passed on as bounds.

This assay has as its target T1, human PAH with the R408W mutation (A375 R408W cells) (Homo sapiens, UniProt P00439, R408W).
T1 construct: expressed in transfected cells
T1 sequence (P00439 1-452 R408W): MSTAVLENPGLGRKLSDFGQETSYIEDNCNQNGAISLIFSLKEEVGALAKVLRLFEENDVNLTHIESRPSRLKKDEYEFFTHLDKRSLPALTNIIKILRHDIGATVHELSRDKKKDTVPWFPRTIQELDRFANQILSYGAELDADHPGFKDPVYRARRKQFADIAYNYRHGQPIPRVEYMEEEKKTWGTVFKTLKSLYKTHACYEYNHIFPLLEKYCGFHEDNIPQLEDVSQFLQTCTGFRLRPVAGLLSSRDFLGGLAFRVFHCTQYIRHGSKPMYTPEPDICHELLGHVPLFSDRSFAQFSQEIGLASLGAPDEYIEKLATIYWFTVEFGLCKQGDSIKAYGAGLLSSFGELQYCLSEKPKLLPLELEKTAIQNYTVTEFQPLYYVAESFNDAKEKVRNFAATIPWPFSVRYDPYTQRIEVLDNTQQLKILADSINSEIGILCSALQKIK
Nature of the assay: Cell Based Phenylalanine Flux Assay. As to conditions: A375 R408W cells; 24 hrs with compound, then 20 μM sepiapterin and 800 μM 13C9,15N-Phenylalanine for 4 hours; 13C-Tyrosine by LC-MS; average where tested multiple times. The method in brief:
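Puromycin-selected A375 line, lentiviral hPAH R408W; cmpd 24 h, 37 °C, 5% CO2, 0.5% DMSO; then 20 μM sepiapterin + 800 μM 13C9,15N-Phe, 4 h; media extracted in 80% MeCN; 13C-Tyr by LC-MS; AC50 from 10-pt curves.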
By AC50 is commonly meant the concentration at which the activity in the assay is half-maximal. As to `O=C(c1nnc(-c2ncccc2F)o1)N1CCc2[nH]cnc2[C@H]1c1nc2c(F)ccc(F)c2o1` [Example 800, (S)-(4-(4,7-difluorobenzo[d]oxazol-2-yl)-6,7-dihydro-1H-imidazo[4,5-c]pyridin-5(4H)-yl)(5-(3-fluoropyridin-2-yl)-1,3,4-oxadiazol-2-yl)methanone], the AC50 is not above 500 nM.
For `O=C(c1nnc(-c2cnn(C(F)F)c2)o1)N1CCc2[nH]cnc2[C@H]1c1nc2c(F)ccc(F)c2o1` [Example 801, (S)-(4-(4,7-difluorobenzo[d]oxazol-2-yl)-6,7-dihydro-1H-imidazo[4,5-c]pyridin-5(4H)-yl)(5-(1-(difluoromethyl)-1H-pyrazol-4-yl)-1,3,4-oxadiazol-2-yl)methanone] the value was not above 500 nM.
For `O=C(c1nnc(-c2cnn(C(F)F)c2)o1)N1CCc2[nH]cnc2[C@@H]1c1nc2c(F)ccc(F)c2o1` [Example 802, (R)-(4-(4,7-difluorobenzo[d]oxazol-2-yl)-6,7-dihydro-1H-imidazo[4,5-c]pyridin-5(4H)-yl)(5-(1-(difluoromethyl)-1H-pyrazol-4-yl)-1,3,4-oxadiazol-2-yl)methanone] the value was 500 to 1000 nM.
For `Cc1ncoc1C(=O)N1CCc2[nH]cnc2[C@H]1c1nc2c(F)ccc(F)c2o1` [Example 807, (S)-(4-(4,7-difluorobenzo[d]oxazol-2-yl)-6,7-dihydro-1H-imidazo[4,5-c]pyridin-5(4H)-yl)(4-methyloxazol-5-yl)methanone] the value was not above 500 nM; for `Cc1ncoc1C(=O)N1CCc2[nH]cnc2[C@@H]1c1nc2c(F)ccc(F)c2o1` [Example 808, (R)-(4-(4,7-difluorobenzo[d]oxazol-2-yl)-6,7-dihydro-1H-imidazo[4,5-c]pyridin-5(4H)-yl)(4-methyloxazol-5-yl)methanone], 1000 to 5000 nM.
Take `CC(C)(F)c1nnc(C(=O)N2CCc3[nH]cnc3[C@@H]2c2nc3c(F)ccc(F)c3o2)o1` [Example 809, (R)-(4-(4,7-difluorobenzo[d]oxazol-2-yl)-6,7-dihydro-1H-imidazo[4,5-c]pyridin-5(4H)-yl)(5-(2-fluoropropan-2-yl)-1,3,4-oxadiazol-2-yl)methanone]: the AC50 is not above 500 nM.
The figure for `O=C(c1nnc(-c2cnn(C3CCC3)c2)o1)N1CCc2[nH]cnc2[C@H]1c1nc2c(F)ccc(F)c2o1` [Example 811, (S)-(5-(1-cyclobutyl-1H-pyrazol-4-yl)-1,3,4-oxadiazol-2-yl)(4-(4,7-difluorobenzo[d]oxazol-2-yl)-6,7-dihydro-1H-imidazo[4,5-c]pyridin-5(4H)-yl)methanone] is not above 500 nM; for `O=C(c1nnc(-c2cnn(C3CCC3)c2)o1)N1CCc2[nH]cnc2[C@@H]1c1nc2c(F)ccc(F)c2o1` [Example 812, (R)-(5-(1-cyclobutyl-1H-pyrazol-4-yl)-1,3,4-oxadiazol-2-yl)(4-(4,7-difluorobenzo[d]oxazol-2-yl)-6,7-dihydro-1H-imidazo[4,5-c]pyridin-5(4H)-yl)methanone] it is 500 to 1000 nM.
The figure for `Cn1ccc(-c2nnc(C(=O)N3CCc4[nH]cnc4[C@H]3c3nc4c(F)ccc(F)c4o3)o2)n1` [Example 813] is not above 500 nM; for `O=C(c1nnc(-c2ccn(C(F)F)n2)o1)N1CCc2[nH]cnc2[C@@H]1c1nc2c(F)ccc(F)c2o1` [Example 815, (R)-(4-(4,7-difluorobenzo[d]oxazol-2-yl)-6,7-dihydro-1H-imidazo[4,5-c]pyridin-5(4H)-yl)(5-(1-(difluoromethyl)-1H-pyrazol-3-yl)-1,3,4-oxadiazol-2-yl)methanone] it is 500 to 1000 nM; for `O=C(c1nnc(-c2ccn(C(F)F)n2)o1)N1CCc2[nH]cnc2[C@@H]1c1nc2c(F)ccc(F)c2o1` [Example 816, (R)-(4-(4,7-difluorobenzo[d]oxazol-2-yl)-6,7-dihydro-1H-imidazo[4,5-c]pyridin-5(4H)-yl)(5-(1-(difluoromethyl)-1H-pyrazol-3-yl)-1,3,4-oxadiazol-2-yl)methanone] it is not above 500 nM.
For `Cn1cnc(-c2nnc(C(=O)N3CCc4[nH]cnc4[C@H]3c3nc4c(F)ccc(F)c4o3)o2)c1` [Example 817, (S)-(4-(4,7-difluorobenzo[d]oxazol-2-yl)-6,7-dihydro-1H-imidazo[4,5-c]pyridin-5(4H)-yl)(5-(1-methyl-1H-imidazol-4-yl)-1,3,4-oxadiazol-2-yl)methanone] the value was 500 to 1000 nM.
Regarding `Cn1cnc(-c2nnc(C(=O)N3CCc4[nH]cnc4[C@@H]3c3nc4c(F)ccc(F)c4o3)o2)c1` [Example 818, (R)-(4-(4,7-difluorobenzo[d]oxazol-2-yl)-6,7-dihydro-1H-imidazo[4,5-c]pyridin-5(4H)-yl)(5-(1-methyl-1H-imidazol-4-yl)-1,3,4-oxadiazol-2-yl)methanone], the AC50 was in the range of 1000 to 5000 nM.
For `Cc1nc(C(=O)N2CCc3[nH]cnc3[C@H]2c2nc3c(C)cccc3o2)n(C)n1` [Example 819, (S)-(1,3-dimethyl-1H-1,2,4-triazol-5-yl)(4-(4-methylbenzo[d]oxazol-2-yl)-6,7-dihydro-1H-imidazo[4,5-c]pyridin-5(4H)-yl)methanone] the value was 500 to 1000 nM; for `Cc1nc(C(=O)N2CCc3[nH]cnc3[C@@H]2c2nc3c(C)cccc3o2)n(C)n1` [Example 820, (R)-(1,3-dimethyl-1H-1,2,4-triazol-5-yl)(4-(4-methylbenzo[d]oxazol-2-yl)-6,7-dihydro-1H-imidazo[4,5-c]pyridin-5(4H)-yl)methanone], not below 5000 nM.
On to `COc1cccc2nc([C@@H]3c4nc[nH]c4CCN3C(=O)c3cc(C)nn3C)oc12` [Example 821, (S)-(1,3-dimethyl-1H-pyrazol-5-yl)(4-(7-methoxybenzo[d]oxazol-2-yl)-6,7-dihydro-1H-imidazo[4,5-c]pyridin-5(4H)-yl)methanone], for which the AC50 is not above 500 nM.
As to `COc1cccc2nc([C@H]3c4nc[nH]c4CCN3C(=O)c3cc(C)nn3C)oc12` [Example 822, (R)-(1,3-dimethyl-1H-pyrazol-5-yl)(4-(7-methoxybenzo[d]oxazol-2-yl)-6,7-dihydro-1H-imidazo[4,5-c]pyridin-5(4H)-yl)methanone], the AC50 is 1000 to 5000 nM.
The figure for `CC(C)(CO)c1nc(C(F)F)c(C(=O)N2CCc3[nH]cnc3[C@@H]2c2nc3cc(F)ccc3o2)o1` [Example 823, (R)-(4-(difluoromethyl)-2-(1-hydroxy-2-methylpropan-2-yl)oxazol-5-yl)(4-(5-fluorobenzo[d]oxazol-2-yl)-6,7-dihydro-1H-imidazo[4,5-c]pyridin-5(4H)-yl)methanone] is 1000 to 5000 nM.
The figure for `CC(C)(CO)c1nc(C(F)F)c(C(=O)N2CCc3[nH]cnc3[C@H]2c2nc3cc(F)ccc3o2)o1` [Example 824, (S)-(4-(difluoromethyl)-2-(1-hydroxy-2-methylpropan-2-yl)oxazol-5-yl)(4-(5-fluorobenzo[d]oxazol-2-yl)-6,7-dihydro-1H-imidazo[4,5-c]pyridin-5(4H)-yl)methanone] is not above 500 nM; for `Cc1nc(-c2ccn(C)n2)oc1C(=O)N1CCc2[nH]cnc2[C@H]1c1nc2cc(F)ccc2o1` [Example 825, (S)-(4-(5-fluorobenzo[d]oxazol-2-yl)-6,7-dihydro-1H-imidazo[4,5-c]pyridin-5(4H)-yl)(4-methyl-2-(1-methyl-1H-pyrazol-3-yl)oxazol-5-yl)methanone] it is 1000 to 5000 nM.
